According to US12698467B2, “Tissue engineered scaffolds, instrumented bioreactors and methods of use thereof” (President and Fellows of Harvard College, priority 2018, dated 2026):
“Also recorded” adds a separate entry of the source.

Legend:
[1] = system: human induced pluripotent stem cell-derived cardiomyocyte (hiPSC-CM) tissue-engineered ventricles; assay: β-adrenergic response of tissue-engineered hiPSC-CM ventricles by pressure-volume catheterization; format: cell-based
Description: (§1) Intra-ventricular pressure and volume were measured simultaneously using a Millar MPVS-Ultra single segment foundation system for rats with SPR-869NR rat pressure-volume (PV) catheters (ADInstruments, Colorado Springs, CO). Catheter calibration and PV experiments were performed in freshly prepared Tyrode's solution. First, tissue-engineered ventricles were transferred to a 3.5 cm petri dish mounted on a temperature-controlled stage (Warner Instruments, Hamden Conn.) to maintain 35° C. working temperature. Ventricles were sutured to silicone tubing through which catheters were inserted (FIG. 12A). Data acquired at a sampling rate of 2,000 samples per second using manufacturer-supplied acquisition systems (Millar MPVS ultra, ADInstruments LabChart) and was exported for post-processing with custom Matlab scripts (MathWorks, Natick MA).
(§2) Catheter calibration. Catheters were equilibrated at 35° C. prior to use and calibrated for pressure using a manometer (Meriam M2; Meriam Process Technologies, Cleveland, OH) and volume using manufacturer-supplied cuvettes (Millar P/N 910-1048). […] Separate scaffold-specific calibrations were performed, where cell-free scaffolds were inflated and deflated by manual application of pressure through a solution-filled syringe connected to the ventricle through a junction port. […] In some cases, pressure or volume signal noise and drift were reduced by post-processing using Matlab's smooth and polyfit functions (FIG. 12C). Pressure and volume signals were normalized by polynomial background subtraction to reduce unwanted signal drift from large data sets, clarifying frequency-domain analysis of ventricle beat rates over these time periods (FIGS. 13A-13D).
(§3) β-adrenergic response of tissue-engineered ventricles. The contractile response of tissue-engineered ventricles to increasing concentrations of the β-adrenergic agonist isoproterenol was measured as follows. A 100 mM stock solution of isoproterenol (Sigma-Aldrich) containing 110 μM ascorbic acid (Sigma-Aldrich) and 45 μM EDTA (Sigma-Aldrich) was prepared in Tyrode's solution and stored at −20° C. […]

[2] = system: neonatal rat ventricular myocyte (NRVM) tissue-engineered ventricles; assay: β-adrenergic response of tissue-engineered NRVM ventricles by pressure-volume catheterization; format: cell-based
Description: as §1, §2, §3

## CC(C)NCC(O)c1ccc(O)c(O)c1 (stereo not drawn) [isoproterenol]
[1]; hiPSC-CM ventricles, 1 e^−10 M to 1 e^−4 M, cumulative doses
  chronotropic response of ventricle beat rate: positive chronotropic response
[1]; hiPSC-CM ventricles, 10^−4 M isoproterenol, compared to spontaneous baseline (no Iso)
  increase of ventricle beat rate: ~ 40%
[1]; human (hiPSC-CM) ventricles, before vs after isoproterenol exposure
  effect on stroke work (pressure/volume loops): reduction in stroke work; also recorded: reduced stroke work
[2]; NRVM ventricles, 1 e^−10 M to 1 e^−4 M, cumulative doses
  chronotropic response of ventricle beat rate: positive chronotropic response
[2]; NRVM ventricles, 10^−4 M isoproterenol, compared to spontaneous baseline (no Iso)
  increase of ventricle beat rate: ~ 40%
[2]; rat (NRVM) ventricles, before vs after isoproterenol exposure
  effect on stroke work (pressure/volume loops): reduction in stroke work; also recorded: reduced stroke work
